Results: publication PMC6736568, “Discovery of Novel Anti-cryptosporidial Activities From Natural Products by in vitro High-Throughput Phenotypic Screening” (Frontiers in Microbiology, 2019)
Where a name gives a salt, the structure may show the parent alone. Read-outs that look alike come from different tables or passages of the source.

Tests used:
Cryptosporidium parvum = test: qRT-PCR assay of the growth of C. parvum in vitro in HCT-8 host cells (primary and secondary screening, EC50); assay type: cell-based; conditions: Cryptosporidium parvum; for EC50: growth of C. parvum in vitro, HCT-8 host cells, 44 h infection
HCT-8 cells = test: In vitro cytotoxicity MTS assay on host cells; assay type: cell-based, human; conditions: 41 h
Description: The plates were measured for absorbance at 490 nm in 15 min intervals in a SmartReader 96 microplate reader (Accuris, Edison, NJ, United States). Cytotoxicity of a compound was quantified by calculating the half maximal toxic concentration on host cells (TC50). An in vitro safety interval (SI) was calculated by determining the ratio between TC50 and EC50 values (i.e., SI = TC50/EC50).

[1] = HCT-8, primary screening at 10 uM, read-out: Inhibition (%)
[2] = HCT-8, secondary screening at 3.3 uM, read-out: % Inhibition (3.3 uM)
[3] = primary screening at 10 uM, treated vs control

| Structure (SMILES) | inhibition at 10 µM (Cryptosporidium parvum; [1]) [%] | Hs18S ΔCT (HCT-8 host cells (Hs18S); human, 41 h, 10 μM) | cytotoxicity at 41 h, 10 µM (in vitro; human) [%] | Hs18S ΔCT (HCT-8 host cells (Hs18S); [3]) | cytotoxicity at 10 µM (in vitro) [%] | further results |
| --- | --- | --- | --- | --- | --- | --- |
| COc1ccc(C(=O)c2ccc(O)cc2)c(O)c1O [2,3,4′-Trihydroxy-4-methoxybenzophenone] | 83.2 | 0.10 | 6.4 | – | – | inhibition at 3.3 µM (Cryptosporidium parvum; [2]): 59%; EC50 (Cryptosporidium parvum): 3.69 µM; TC50 (HCT-8 cells; HCT-8 cells, MTS): >100 µM |
| COC(=O)C[C@H]1C(C)(C)[C@@H](O)[C@@H]2CC3=C4C=C(OC)O[C@@H](c5ccoc5)[C@]4(C)CCC3[C@@]1(C)C2=O (stereo partly drawn) [3-Deoxo-3beta-hydroxy-mexicanolide 16-enol ether] | 90 | -0.49 | -40.1 | – | – | inhibition at 3.3 µM (Cryptosporidium parvum; [2]): 71%; EC50 (Cryptosporidium parvum): 3.94 µM; TC50 (HCT-8 cells; HCT-8 cells, MTS): >100 µM |
| O=c1cc(-c2ccccc2)oc2cc(O)c(O)c(O)c12 [Baicalein] | 81.3 | 0.10 | 6.7 | – | – | inhibition at 3.3 µM (Cryptosporidium parvum; [2]): 66%; EC50 (Cryptosporidium parvum): 0.981 µM; TC50 (HCT-8 cells; human): >100 µM |
| CC1(C)C(=O)C=C[C@@]2(C)C1=C(O)C(=O)[C@]1(C)[C@@H]2CC[C@@]2(C)[C@H](c3ccoc3)C[C@H]3O[C@]321 [Cedrelone] | 99.5 | 1.38 | 61.7 | – | – | EC50 (Cryptosporidium parvum): 0.267 µM; TC50 (HCT-8 cells; human): 3.59 µM |
| CC1=C(/C=C/C(C)=C/C=C/C(C)=C/C(=O)O)C(C)(C)CCC1 [TRETINOIN] | 7.49 | -0.28 | -21.5 | – | – | – |
| CC(=O)Oc1ccc(/C=C/c2cc(OC(C)=O)cc(OC(C)=O)c2)cc1 [TRIACETYLRESVERATROL] | -64.8 | – | – | 0.19 | 12.4 | – |
| C[n+]1cccc(C(=O)[O-])c1 [TRIGONELLINE] | -29.9 | 0.03 | 2.2 | – | – | – |
| CC(C)c1ccc2c(c1O)CC[C@H]1C3=C(CC[C@]21C)C(=O)OC3 [TRIPTOPHENOLIDE] | -24.5 | -0.29 | -22.1 | – | – | – |
| NCCc1c[nH]c2ccccc12 [TRYPTAMINE] | 95.5 | – | – | -0.43 | -34.7 | inhibition at 3.3 µM (Cryptosporidium parvum; [2]): 12% |
| N[C@@H](Cc1c[nH]c2ccccc12)C(=O)O [TRYPTOPHAN] | – | -0.75 | -68.2 | – | – | inhibition at 10 µM (Cryptosporidium parvum; HCT-8): 85.5%; inhibition at 3.3 µM (Cryptosporidium parvum; HCT-8, read-out: % Inhibition (3.3 uM)): 17% |
| NCCc1ccc(O)cc1 [TYRAMINE] | -27.4 | -0.27 | – | – | -20.9 | – |
| O=c1ccc2ccc(O)cc2o1 [UMBELLIFERONE] | -15.7 | – | – | – | -88.9 | Hs18S ΔCT (HCT-8 host cells (Hs18S)): -0.92 |
| O=c1cc[nH]c(=O)[nH]1 [URACIL] | 2.08 | – | -21.4 | -0.28 | – | – |
| O=c1ccn([C@@H]2O[C@H](CO)[C@@H](O)[C@H]2O)c(=O)[nH]1 [URIDINE] | 44.8 | 0.02 | 1.4 | – | – | – |
| COc1ccc(C(=O)CC(=O)O)c2c1C=CC(C)(C)O2 [URSINOIC ACID] | 14.2 | -0.46 | -37.5 | – | – | – |
| C[C@H](CCC(=O)O)[C@H]1CC[C@H]2[C@@H]3CC[C@@H]4CCCC[C@]4(C)[C@H]3CC[C@]12C [URSOCHOLANIC ACID] | 59.3 | – | – | -0.10 | – | cytotoxicity at 41 h, 10 µM (in vitro): -6.9% |
| C[C@H](CCC(=O)O)[C@H]1CC[C@H]2[C@@H]3[C@@H](O)C[C@@H]4C[C@H](O)CC[C@]4(C)[C@H]3CC[C@]12C [URSODIOL] | -41.7 | -0.15 | -10.9 | – | – | – |
| CC(=O)c1c(O)c(C)c(O)c2c1OC1=CC(=O)C(C(C)=O)C(=O)C12C (stereo not drawn) [USNIC ACID] | 18.8 | – | – | -0.31 | -23.9 | – |
| CCC(C)C(=O)O[C@@H]1C[C@@]2(C)[C@H](c3ccoc3)OC(=O)CC23OC2(C)O[C@]14[C@]1(C)[C@@H](CC(=O)OC)C5(C)CC1(O)[C@](O)(C5OC(=O)C1(C)OC1C)[C@@H](OC(C)=O)[C@]34O2 (stereo partly drawn) [UTILIN] | 36.8 | 0.06 | 4.2 | – | – | – |
| COc1ccc(C(=O)O)cc1OC [VERATRIC ACID] | -10.7 | – | – | -0.09 | -6.7 | – |
| CC[C@]1(O)C[C@@H]2CN(CCc3c([nH]c4ccccc34)[C@@](C(=O)OC)(c3cc4c(cc3OC)N(C)[C@H]3[C@@](O)(C(=O)OC)[C@H](OC(C)=O)[C@]5(CC)C=CCN6CC[C@]43[C@@H]65)C2)C1 [VINBLASTINE SULFATE] | 71.7 | 0.81 | 43 | – | – | inhibition at 3.3 µM (Cryptosporidium parvum; [2]): 67% |
| CC[C@]12CCCN3CCc4c(n(c5ccccc45)[C@@](O)(C(=O)OC)C1)[C@@H]32 [VINCAMINE] | -20.8 | 0.12 | 8.2 | – | – | – |

| Structure (SMILES) | inhibition at 10 µM (Cryptosporidium parvum; [1]) [%] | Hs18S ΔCT (HCT-8 host cells (Hs18S); human, 41 h, 10 μM) | cytotoxicity at 41 h, 10 µM (in vitro; human) [%] | Hs18S ΔCT (HCT-8 host cells (Hs18S); [3]) | cytotoxicity at 10 µM (in vitro) [%] | further results |
| --- | --- | --- | --- | --- | --- | --- |
| COc1cc(C/C=C/c2ccccc2)c(OC)cc1O [VIOLASTYRENE] | -23.6 | -0.30 | -23.3 | – | – | – |
| COc1c2ccoc2cc2oc(C)cc(=O)c12 [VISNAGIN] | 15.1 | -0.27 | -20.7 | – | – | – |
| COC(=O)/C(=C1/OC(=O)C(c2ccccc2)=C1O)c1ccccc1 [VULPINIC ACID] | -77.9 | 0.64 | 36 | – | – | – |
| O=c1c2ccccc2oc2ccccc12 [XANTHONE] | 0.45 | 0.13 | 8.9 | – | – | – |
| Nc1nc(=O)c2[nH]c(=O)cnc2[nH]1 [XANTHOPTERIN] | 22.7 | 0.47 | 27.9 | – | – | – |
| COc1cc(O)c(C(C)=O)c(OC)c1 [XANTHOXYLIN] | -20.7 | 0.08 | 5.4 | – | – | – |
| CC1(C)C=Cc2cc3ccc(=O)oc3cc2O1 [XANTHYLETIN] | 1.74 | – | – | 0.12 | 8.1 | – |
| COC(=O)CC1C(C)(C)C(OC(C)=O)[C@@H]2[C@@H](OC(C)=O)[C@]34O[C@@]2(O)[C@]1(C)C3CC[C@]1(C)C4=CC(=O)O[C@H]1c1ccoc1 (stereo partly drawn) [XYLOCARPUS A] | -11.9 | -0.48 | -39.2 | – | – | – |
| O=C(O)c1cc(O)c2cccc(O)c2n1 [X[…]] | – | – | – | -0.32 | -24.4 | inhibition at 10 µM (Cryptosporidium parvum; HCT-8): 20.3% |
| COC(=O)[C@@H]1[C@H]2C[C@H]3c4[nH]c5ccccc5c4CCN3C[C@@H]2CC[C@@H]1O [YOHIMBINE HYDROCHLORIDE] | 5.49 | -0.45 | -36.5 | – | – | – |
| COC(=O)[C@@H]1C[C@H](OC(C)=O)C(=O)[C@H]2[C@@]1(C)CC[C@H]1C(=O)O[C@H](c3ccoc3)C[C@]21C [[…]] | 16.7 | – | – | 0.53 | 30.5 | – |
| C[N+]12CC[C@@]34c5ccccc5N5C(=O)C[C@@H]6OCC=C(C1)[C@H](C[C@@H]32)[C@@H]6[C@H]54 (stereo partly drawn) [[…]] | -6.9 | – | – | 0.58 | 33.3 | – |
| Cc1c(C)c2c(c(C)c1O)CCC(C)(CCCC(C)CCCC(C)CCCC(C)C)O2 (stereo not drawn) [alpha-TOCHOPHEROL] | -14.7 | – | – | 0.21 | 13.8 | – |
| CC(=O)Oc1c(C)c(C)c2c(c1C)CCC(C)(CCCC(C)CCCC(C)CCCC(C)C)O2 (stereo not drawn) [alpha-TOCHOPHERYL ACETATE] | -13.6 | -0.21 | -15.8 | – | – | – |
| CC(=O)O[C@H]1CC[C@]2(C)[C@H]3CC=C4[C@@H]5CC(C)(C)CC[C@]5(C)CC[C@@]4(C)[C@]3(C)CC[C@H]2C1(C)C [beta-AMYRIN ACETATE] | 11.3 | 0.01 | 0.5 | – | – | – |
| CC1(C)CC[C@]2(C)CC[C@]3(C)C(=CC[C@@H]4[C@@]5(C)CC[C@H](O)C(C)(C)[C@@H]5CC[C@]43C)[C@@H]2C1 [beta-AMYRIN] | -38.2 | – | – | -0.12 | -8.3 | – |
| CC1=C(/C=C/C(C)=C/C=C/C(C)=C/C=C/C=C(C)/C=C/C=C(C)/C=C/C2=C(C)CCCC2(C)C)C(C)(C)CCC1 [beta-CAROTENE] | -34.8 | 0.04 | 2.8 | – | – | – |
| CC12CCCC(O)(C1)C1CC(C)(C)C1CC2 (stereo not drawn) [beta-CARYOPHYLLENE ALCOHOL] | 24.2 | 0.03 | 1.9 | – | – | – |
| CC[C@H](CC[C@@H](C)[C@H]1CC[C@H]2[C@@H]3CC=C4C[C@@H](O)CC[C@]4(C)[C@H]3CC[C@]12C)C(C)C [beta-SITOSTEROL] | 91.7 | – | – | 0.43 | 25.8 | inhibition at 3.3 µM (Cryptosporidium parvum; [2]): 20% |
| NC(C(=O)O)C(O)C(=O)O (stereo not drawn) [d,l-threo-3-HYDROXYASPARTIC ACID] | 17.8 | 0.16 | 10.7 | – | – | – |
| C=C(C)[C@H]1CC=C(C)CC1 [d-LIMONENE] | -6.54 | -0.21 | -15.7 | – | – | – |
